US11174286B2, “Inhibitors of NF κ-B activity for treatment of diseases and disorders” (priority 2014, dated 2021)
Non-standard residues stand in square brackets, D forms with d. No end group written: not given here.

What was measured:
smad2 [1] = test: Phospho-Smad2 sandwich ELISA in MCF-7 cells (lack functional TBRII); type: cell-based; conditions: for phosphorylation of smad2: MCF-7 cells (do not express TBRII)
Procedure: (§1) Phosphorylation of smad2 was determined by Enzyme-Linked Immunosorbent Assay (ELISA) using a kit obtained from a commercial source. The Phospho-Smad2 Sandwich ELISA Kit is a solid phase sandwich enzyme-linked immunosorbent assay (ELISA) that recognizes endogenous levels of phospho-Smad2 (Ser465/467) and Smad3 (Ser423/425) proteins. A Smad2/3 Mouse Antibody has been coated on the microwells. After incubation with cell lysates, Smad2/3 proteins (phospho and nonphospho) are captured by the coated antibody. Following extensive washing, a Phospho-Smad2 (Ser465/467)/Smad3 (Ser423/425) Detection Antibody is added to detect captured phospho-Smad2 (Ser465/467) and phospho-Smad3 (Ser423/425) proteins. Anti-rabbit IgG, HRP-linked Antibody is then used to recognize the bound detection antibody. HRP substrate, TMB, is added to develop color. The magnitude of the absorbance for this developed color is proportional to the quantity of phospho-Smad2 (Ser465/467) and phospho-Smad3 (Ser423/425) proteins.

smad2 [2] = test: Phospho-Smad2 sandwich ELISA in HepG2 cells; type: cell-based; conditions: HepG2 cells (TBRII and TBRI present)
Procedure: TGF-β signaling requires both receptors.
as §1

[3] = test system: carrageenan-induced hyperalgesia in rat paw; test: Carrageenan-induced hyperalgesia in rat paw (modified Randell-Selitto paw withdrawal method); type: in vivo, albino rats; conditions: 3 mg carrageenan, 70 nanogram peptide
Procedure: To establish the efficacy of the disclosed peptide inhibitors of NF-κB activity in analgesia, hyperalgesia was induced in rat paws with injections of carrageenan. The experiment is as described in Example 5. Injection of carrageenan in a hind paw of rats produced severe hyperalgesia. […] Only the results with peptide SEQ ID NO:042 are shown here.
The ability of the disclosed peptides to affect nociception was determined using a modification of the Randell-Selitto paw withdrawal method. Groups (n=6) of healthy albino rats were injected in the paw with 3 mg carrageenan alone in phosphate buffered saline (PBS). […] As inflammation became obvious (15 min) in carrageenan-treated animals, test animals were injected with 70 nanogram of peptide SEQ ID NO:001, or peptide SEQ ID NO:042 in PBS. The animals are allowed to walk on a metal grid before and after injecting the drugs and the observations were noted. The scoring system was based on normal gait=1, marked limping=0.5, and three legged gait=0. The scores are transformed into percent analgesia and subjected to statistical analysis. The two peptides gave very similar results. The results shown in FIG. 10 are from animals treated with peptide SEQ ID NO:042.

[4] = test system: carrageenan-induced inflammation in rat paw; test: Carrageenan-induced paw edema (plethysmometer); type: in vivo, albino rats
Text: INFLAMMATORY DISEASES AND FIBROTIC DISEASES: NF-κB is a prototypical proinflammatory signaling pathway, based on the activation of NF-κB by proinflammatory cytokines such as interleukin 1 (IL-1) and tumor necrosis factor a (TNF-α), and the subsequent role of NF-κB in the expression of other proinflammatory genes including cytokines, chemokines, and adhesion molecules. Inhibition of NF-κB can be expected to result in amelioration of inflammation. This was confirmed experimentally using peptide SEQ ID NO:042 in a standard model of carrageenan-induced inflammation in rat paw. This method measures acute inflammation induced by injection of carrageenan (Sakat et al., Inflammation 37(1):1-9 (2014)) and is used extensively to study antiinflammatory properties of drugs. Carrageenan is known to activate NF-κB (Bhattacharyya et al., Mediators of Inflammation, Vol. 2013, Article ID 397642; Bhattacharyya et al., American Journal of Physiology 301(3):G475-G486 (2011); Ellis et al., Ann. Rheum. Dis. 59:303-307 (2000); Pierce et al., J. Biol. Chem. 272:21096-21103 (1997)). Example 6 and FIG. 11 show the high efficacy of peptide SEQ ID NO:042 in alleviating edema and inflammation. […] Treatment of inflammation requires the subsidence of TNF-α and NF-κB pathways, which are part of the action of the disclosed peptides.
Groups (n=6) of healthy albino rats were injected in the paw with 3 mg carrageenan alone in phosphate buffered saline (PBS). […] As inflammation became obvious (15 min) in carrageenan-treated animals, test animals were injected with 70 nanogram of peptide SEQ ID NO:001, or peptide SEQ ID NO:042 in PBS. A plethysmometer was used to measure paw edema at 0, 0.5, 1.0, 2.0, 3.0, 6.0, 12.0, and 24 hours after injections. […] In contrast, animals not receiving peptide continued to show significant inflammation at all time points.

[5] = test system: oral cancer cell line AW 13516; test: Cell cycle analysis by flow cytometry (propidium iodide); type: cell-based
Procedure: Cell cycle analysis was performed in oral cancer cell line AW 13516 after treatment with TGF-β alone, peptide alone or in combination. Cell cycle analysis was carried out using flow cytometry (Guava Technologies) using reagent kits provided by the instrument maker. The samples were prepared after propidium iodide staining and flow cytometric analysis was performed. TGF-β causes G1 arrest in cells as expected. The disclosed peptides in contrast markedly shortened the G1 phase and prolonged the S-phase, promoting a more faithful synthesis of DNA prior to cell division. Thus, the disclosed peptides have effects which differ from the effects of growth factors.

p65 subunit of NF κB = test: Western blot for p65 (NF κB) phosphorylation in SiHa cells; type: cell-based; conditions: Western blot (FIG. 4)
NF κB = NF κB luciferase reporter assay (dual luciferase) in transfected SiHa cells; type: cell-based; conditions: 24 hours of treatment
Procedure: SiHa cells (ATCC HTB-35) were seeded in the wells of a 96 well plate at 25,000 cells/well. The cells were transfected with the respective luciferase construct (p-SBE4, p-ARE-Luc in combination with FAST-1, p-NF κB) using Lipofectamine 2000 reagent (Invitrogen Technologies Inc.), as per the manufacturer's instructions. 18 hours post transfection; the cells were subjected to the respective treatments such as TGF-β, TNF-α, and the peptides. After 24 hours of treatment, the plates were removed from the incubator; medium from the cells was discarded. The wells were filled with 50 μl of PLB (passive lysis buffer) provided along with the Promega dual luciferase assay kit. The luciferase assay was performed as per the supplier's instruction manual, after transferring the lysates to a white plate for luminescence measurements. Expression of luciferase, and measurement of the resulting luminescence, thus provides a measurement of the extent of expression of NF-κB.
As per the data in FIG. 2, the disclosed peptides inhibit TNF-α-activation of NF-κB. As per the data in FIG. 3, the disclosed peptide LFAP[D]EA (SEQ ID NO:013) inhibits both TNF-α-induced and constitutive activation of NF-κB. The ratio between the firely/renilla luciferase was used to compare TNF-α induced activation of NF-κB over constitutive NF-κB activity.

[6] = test system: chemically induced tumor in hamster cheek; test: DMBA-induced oral tumor in hamster buccal pouch, topical peptide gel; type: in vivo, Syrian hamsters; conditions: for histology of DMBA-treated tissue after peptide treatment: hamster cheek, FIG. 6C
Procedure: A peptide inhibitor of NF κB activity disclosed herein was tested for treatment of induced oral tumors. Male Syrian hamsters aged 8 to 10 weeks weighing between 100 and 110 g were used. The animals were fed a standard pellet diet and water ad libitum, and were maintained in accordance with applicable ethical and institutional guidelines. The animals were randomized into 10 groups of 8 animals each, and the right buccal pouches of hamsters in groups 1-5 were painted with 0.5% 7,12-dimethylbenz[a]anthracene (DMBA) in liquid paraffin three times a week for 12 weeks.
Mucoadhesive gels containing peptides were prepared by slowly adding Noveon AA1 (0.675% w/w) and Carbopol 971P NF (0.788% w/w) to purified water. The mixture was stirred at 1,025 rpm for one hour to allow full rehydration. Then 0.9% w/w glycerine, 2-phenoxyethanol, benzyl alcohol, and EDTA were added, followed by mixing at 875 rpm for one hour at room temperature. Finally, the desired peptide was added to the gel, and the gel mixed at 875 rpm for one hour to homogenize the gel (Kavitha et al., Biochimie 102:56-67 (2014); Mallery et al., Pharm Res. 24(4):728-737 (2007)).
Hamsters in Group 1 received no further treatment. For hamsters in Groups 2 and 3, peptide gel was applied topically to the right buccal pouches of the hamsters from the 12th to the 18th week daily at concentrations of 10 microgram/ml (2.35 microgram dosage of peptide per application) and 100 microgram/ml (23.5 microgram dosage of peptide per application) respectively. Another group of animals painted with liquid paraffin alone served as control. The experiment was terminated after 18 weeks and all animals were sacrificed by cervical dislocation after an overnight fast.

human dermal fibroblasts = test: Gene microarray analysis of gene expression; type: cell-based; conditions: 1.0 micromolar peptide
Text: (§2) NF κB inhibitor peptide SEQ ID NO: 010 down-regulates expression of genes known to be associated with the pathobiological action of NF κB and TNF α. […] The upregulation of certain target genes by the transcription factor NF κB is a major contributory factor in diseases and disorders attributed to the activation of NF κB. The downregulation of these genes by the NF κB inhibitor peptides can be expected to provide prophylaxis and therapy for such disorders. (The downregulation of some of these genes was confirmed in vivo in a study to examine the efficacy of NF κB inhibitor peptide, SEQ ID NO: 010.) Certain genes were also tested in a rodent squamous cell carcinoma model, by PCR and by immunoblots (mRNA levels were monitored by PCR and the corresponding protein levels were monitored by immunoblots).

[7] = In vivo study confirming gene downregulation
Text: as §2

Row | Compound | % CELLS IN G1 Phase [5] | % CELLS IN Go Phase [5] | % CELLS IN M Phase [5] | % CELLS IN S Phase [5] | other results
1 | LIANAK [SEQ ID NO:060] |  |  |  |  | phosphorylation of smad2 (smad2 [1]): causing the phosphorylation of smad2; phosphorylation of smad2 (smad2 [2]): induce phosphorylation
2 | YMAPEV [SEQ ID NO:001] |  |  |  |  | nociception (hyperalgesia) [3]: markedly ameliorated nociception; paw edema pattern compared with peptide SEQ ID NO:042 ([4]; rat paw, 70 nanogram peptide, 0 to 24 hours): nearly identical patterns
3 | LIAPEA [SEQ ID NO:061] | 60.05% | 2.33% | 18.59% | 19.03% | 
4 | TNWAEN [SEQ ID NO:015] |  |  |  |  | inhibition of phosphorylation of the p65 subunit of NF κB (p65 subunit of NF κB): inhibition of phosphorylation
5 | TWAPES [SEQ ID NO:016] |  |  |  |  | inhibition of phosphorylation of the p65 subunit of NF κB (p65 subunit of NF κB): inhibition of phosphorylation
6 | TGF-β | 79.83% | 8.32% | 8.23% | 3.62% | phosphorylation of smad2 (smad2 [1]): do not respond; phosphorylation of smad2 (smad2 [2]): induce phosphorylation
7 | SEQ ID NO:057: peptide of FIG. 8B (SEQ ID NOS:041 through 069), disclosed in U.S. Pat. Nos. 5,661,127, 5,780,436 and 6,638,912; sequence not printed (LIAGEG) | 52.59% | 14.59% | 11.18% | 21.63% | 
8 | LFAP[D]EA (LFAP[dE]A) [SEQ ID NO:013] | 62.05% | 2.87% | 14.86% | 20.21% | inhibition of constitutive activation of NF-κB (NF κB; Renilla luciferase): inhibits; inhibition of TNF-α-induced activation of NF-κB (NF κB; firefly luciferase): inhibits
9 | LWAEAK [SEQ ID NO:008] |  |  |  |  | inhibition of phosphorylation of the p65 subunit of NF κB (p65 subunit of NF κB): inhibition of phosphorylation
10 | LIAP[D]EA (LIAP[dE]A) [SEQ ID NO:014] | 62.69% | 3.19% | 13.52% | 19.78% | 
11 | ANVAENA [SEQ ID NO:042] | 62.73% | 2.02% | 19.10% | 16.14% | histology of DMBA-treated tissue after peptide treatment [6]: an effect at the microscopic level; tumor growth in hamster cheek ([6]; topical, six weeks, 100 microgram/ml (23.5 microgram per application), after DMBA): marked inhibition of tumor growth; nociception (hyperalgesia) [3]: markedly ameliorated nociception; anti-inflammatory efficacy relative to that reported for celecoxib ([4]; compared with literature value for celecoxib): approximately 103 times; edema and inflammation at 2 h ([4]; rat paw, 3 mg carrageenan, 70 nanogram peptide, 2 h): significant decrease in edema and inflammation; inflammation by 3.0 h ([4]; rat paw, 3 mg carrageenan, 70 nanogram peptide, 3.0 h): subsided almost completely; inflammation up to 24 h post injection ([4]; rat paw, 3 mg carrageenan, 70 nanogram peptide, up to 24 h): no inflammation was noted
12 | NC(=O)c1ccc(-c2nc(-c3ccc4c(c3)OCO4)c(-c3ccccn3)[nH]2)cc1 [SB431542, 4-[4-(1,3-benzodioxol-5-yl)-5-(2-pyridinyl)-1H-imidazol-2-yl]benzamide, reference compound] |  |  |  |  | effect on peptide-induced smad2 phosphorylation (smad2 [1]; MCF-7 cells, with peptide LIANAK): did not prevent smad2 phosphorylation
13 | TWSPEL [SEQ ID NO:017] |  |  |  |  | inhibition of phosphorylation of the p65 subunit of NF κB (p65 subunit of NF κB): inhibition of phosphorylation
14 | NVAENA [SEQ ID NO:010] |  |  |  |  | histology of DMBA-treated tissue after peptide treatment [6]: histology is closer to normal histology after treatment; expression of genes associated with the pathobiological action of NF κB and TNF α (human dermal fibroblasts): down-regulates; downregulation of some of these genes in vivo [7]: confirmed
